# Read-outs that look alike come from different tables or passages of the source.
# How the values were obtained:
# [1] = tested on: LPA1-HA-expressing HeLa-Flp-In cells; assay: Confocal microscopy for LPA1 internalization; type: cell-based, Human; settings: 1 μM 18:1 LPC, 20 nM ATX, 15 min
# Experimental: Human LPA1 cDNA was amplified by PCR to remove its stop codon and add the restriction sites for BamHI and XhoI, after which it was subcloned in an in-house produced pDNA5.1-HA vector. 0.2 μg of the resulting vector and 1.8 μg of pOG44 Flp-Recombinase Expression Vector (Invitrogen) were incubated with 6 μL of Fugene6 (Invitrogen) in 200 μL of OptiMEM (Gibco) for 30 min, after which the mix was added to previously produced HeLa-Flp-In cells.[43] Their medium was refreshed 24 h later, and selection with 1 μg/mL puromycin was started and maintained with resistant cells.
# Serum-starved LPA1-HA-expressing HeLa-Flp-In cells cultured on 24 mm (#1,5) were treated with 1 μM LPC and 20 nM ATX in the presence or absence of 22 or 23 for 15 min in DMEM containing 0.05% fatty acid-free BSA. Subsequently, coverslips were washed and fixed with 4% PFA, permeabilized with 0.1% Triton X-100, and blocked with 2% BSA for 1 h. Incubation with anti-HA antibody (3F10 from Roche Diagnostics; 1:200) was done for 1 h, followed by incubation with donkey anti-rat Alexa Fluor 488-conjugated antibody (A-21208 from Invitrogen; 1:200) for 1 h at room temperature. For confocal microscopy, cells were washed with PBS, mounted with Immnuno-MountTM (Thermo Scientific), visualized on a LEICA TCS-SP5 confocal microscope (63× objective), and analyzed using ImageJ software.
# [2] = tested on: BJeH fibroblasts; assay: AKT and ERK phosphorylation by western blotting; type: cell-based; settings: Homo sapiens, 0.25 h, 15 min; for EC50: BJeH cells, 20 nM ATX, 1 μM 18:1 LPC, read-out: EC50 (P-AKT and P-ERK levels); for Emax: BJeH, compared to uninhibited ATX incubated with LPC, read-out: reduction of maximal effective cell response (P-AKT and P-ERK)
# Experimental: 100,000 BJeH cells were seeded in 12-well tissue culture plates and allowed to grow for 24 h in DMEM (GIBCO, Life Technologies) containing 10% FCS (Thermo Scientific) and 100 U mL^–1 streptomycin/penicillin (GIBCO, Life Technologies). Next, they were washed twice with phosphate-buffered saline (PBS) and serum-starved O/N. ATX 20 nM was incubated with inhibitors for 30 min in a serum-free medium containing 0.05% (w/v) fatty acid-free BSA (total volume 1 mL). The medium from the 12-well plates was removed and replaced with 1 mL of the ATX–inhibitor mixture. Cells were stimulated for 15 min, the medium was removed, and plates were immediately frozen on dry ice and stored at −80 °C. For western blotting, cells were washed with cold PBS; lysed in RIPA buffer; supplemented with protease inhibitors (Pierce), 20 mM NaF and 1 mM orthovanadate; and spun down. The protein concentration was measured using a BCA protein assay kit (Pierce), and LDS sample buffer (NuPAGE, Invitrogen) and 1 mM dithiothreitol were added to the lysate. 20 μg of the total protein was loaded on sodium dodecyl sulfate–polyacrylamide gel electrophoresis pre-cast gradient gels (4–12% Nu-Page Bis-Tris, Invitrogen), followed by transfer to a nitrocellulose membrane. Non-specific protein binding was blocked by 5% BSA in PBS-Tween (0.1%); the primary antibodies were phospho-Akt (Ser473), catalogue number: D93, dilution: 1:1,000; phospho-ERK1/2 (Thr202/Tyr204), catalogue number: D13.14.4E, dilution: 1:2,000, from Cell Signaling Technology. They were incubated O/N at 4 °C in PBS–Tween with 5% BSA, containing 0.1% NaN3. Blots were then incubated for 1 h at room temperature with monoclonal anti-β-actin antibody, clone AC-15, dilution: 1:10,000, from Sigma, which was dissolved in PBS–Tween with 5% skimmed milk containing 0.1% NaN3. HRP-conjugated secondary antibodies [goat anti-mouse (Bio-Rad), catalogue number: 1721011; goat anti-rabbit (Pierce), catalogue number: 1858415] were incubated for 1 h at room temperature in PBS–Tween with 2.5% BSA and developed using an ECL Western blot reagent.
# [3] = target: T1, ATX (Rattus norvegicus, UniProt Q64610); assay: Mechanistic studies: mode of inhibition and Ki from LPC titration; type: biochemical; set-up: made in house; settings: for percentage of competitive versus non-competitive inhibition: Akaike's informative criteria; for mode of inhibition: LPC hydrolysis; for Ki: LPC titration at increasing inhibitor concentrations, Michaelis-Menten nonlinear regression; for α (partial mixed inhibition model): α > 1 competitive, α = 1 non-competitive
# Experimental: The biochemical studies of ATX lysoPLD activity were performed with ATX. Activity was measured by a coupled reaction with 1 U mL^–1 choline oxidase and 2 U mL^–1 horseradish peroxidase (HRP) and 2 mM homovanillic acid (HVA) (all from Sigma-Aldrich). For the assays, 14:0, 16:0, 18:1, and 20:0 LPC (Avanti Polar Lipids Inc.) were incubated with 20 nM ATX, reaching a final volume of 100 μL of the buffer, which contained 50 mM Tris, 0.01%, 50 mM CaCl2, Triton X-100, pH 7.4. Steady-state choline release was measured at 37 °C by HVA fluorescence at λex/λem = 320/460 nm in Corning 96- or 384-well OptiPlate (Sigma-Aldrich) and with a Pherastar plate reader (BMG Labtech). […] The resulting fluorescence intensity signal over time was used to model all inhibitor concentrations simultaneously using the following formula, where vmax and vmin were fitted for the minimum and maximum relative velocities, respectively, and ci corresponds to the inhibitor concentration for each assay[20] [drawing 1] 1
# To statistically determine the chance of each type of inhibition, we calculated the α value in the partial mixed inhibition model (eq 5), where Part defines the partiality of the inhibition, and α > 1 or α = 1 correspond to competitive and non-competitive inhibition modes, respectively. Last, we utilized Akaike’s Information Criterion[42] to assess the significance of the analysis [drawing 5] 5
# [4] = target: T1, ATX; assay: Competition with LPA allostery (LPA-mediated activation of ATX); type: biochemical; set-up: made in house; settings: inhibitor at concentrations close to or lower than IC50; 150 μM 18:1 LPC, 18:1 LPA, 20 nM ATX
# Experimental: The activation assays using LPA were performed in a similar way to those done for the inhibitors. In this case, LPA was dissolved in ethanol/H20 (1:1) and 0.01% TX-100 and was added to the reaction buffer. The presence of ethanol was taken into account, and controls in the absence of ATX and/or LPC were employed to correct the kinetic data. ATX was incubated for 30 min with different concentrations of inhibitors and subsequently added to the reaction buffer containing 150 μM 18:1 LPC and different starting concentrations of 18:1 LPA. The slopes were calculated from at least 60 min after the addition of ATX. The percentage of LPA-driven activation was normalized to ATX in the absence of LPA and inhibitors, which represented 100% activity. Last, the activation constant or AC50 was obtained from the following equation [drawing 2] 2
# [5] = target: T1, ATX; assay: Choline oxidase-coupled choline-release assay of LPC hydrolysis by ATX
# [6] = tested on: ATX; settings: cited from earlier work
# [7] = tested on: ATX tunnel; set-up: method as in PMID 27075612; settings: partial non-competitive modulators; cited from earlier work
# [8] = tested on: MDA-MB-231 cells; assay: Boyden chamber cell migration assay; type: cell-based; settings: migration for 4 h; for EC50: 20 nM ATX, 1 μM 18:1 LPC
# Experimental: Migration of MDA-MB-231 cells was performed using 48-well chemotaxis chambers (Neuro Probe, Inc.) equipped with […] pore polycarbonate membranes, which were coated with fibronectin (10 μg/mL) (F1141, Sigma-Aldrich). Cells (2 × 10^6 cells/mL) were added to the upper chamber. 0.05% fatty acid-free BSA was used as a lysophospholipid carrier. Cells were allowed to migrate for 4 h at 37 °C in humidified air containing 5% CO2. Migrated cells were fixed in Diff-Quik Fix and stained using Diff-Quik II. Migration was quantified by color intensity measurements using Photoshop software.
# [9] = 14:0 LPC, 150 μM LPC, 20 nM ATX
# [10] = 16:0 LPC, 150 μM LPC, 20 nM ATX
# [11] = 18:1 LPC, 150 μM LPC, 20 nM ATX
# [12] = 20:0 LPC, 150 μM LPC, 20 nM ATX
# [13] = 20:0 LPC, 150 μM LPC, 20 nM ATX, % of catalytic rate of inhibitor-free control
# [14] = LPC hydrolysis assay, 20 nM ATX
Molecule,decrease of LPA1 internalization [1],EC50 [2],Emax [2],percentage of competitive versus non-competitive inhibition [3],mode of inhibition [3],Ki [3],α (partial mixed inhibition model) [3],LPA-mediated activation of ATX activity [4],"IC50 [5, 9]","Residual Activity (%) [5, 9]","IC50 [5, 10]","Residual Activity (%) [5, 10]","IC50 [5, 11]","Residual Activity (%) [5, 11]","IC50 [5, 12]","Residual Activity (%) [5, 13]","IC50 [5, 14]","Residual Activity (%) [5, 14]",also measured
C[C@H](CCC(=O)N1CCC(Oc2ccc([B-](F)(F)F)cc2)CC1)[C@H]1CC[C@H]2C3[C@@H](O)C[C@@H]4C[C@H](O)CC[C@]4(C)[C@H]3CC[C@]12C.[K+] (stereo partly drawn) [Compound 22],approximately 75%,~100 nM,~60%,99%,competitive,24 ± 4 nM,9.7,dose-dependent decrease,84 nM,1%,72 nM,12%,45 nM,5%,32 nM,49%,50 nM,0%,
"2-[[2-Ethyl-6-[4-[2-(3-hydroxyazetidin-1-yl)-2-oxoethyl]piperazin-1-yl]-8-methylimidazo[1,2-a]pyridin-3-yl]methylamino]-4-(4-fluorophenyl)thiazole-5-carbonitrile [Compound 3]",,,,,,,,,,,,,,,,,,,IC50 [6]: 131 nM
"C[C@H](CCC(=O)O)[C@H]1CC[C@H]2[C@@H]3[C@@H](O)C[C@@H]4C[C@H](O)CC[C@]4(C)[C@H]3CC[C@]12C [Compound 9, ursodeoxycholic acid, reference compound]",,,,,,,,,,,,,,,,,,,affinity for the ATX tunnel [7]: micromolar; IC50 [5]: 9000 nM
C[C@H](CCC(=O)N1CCC(Oc2ccc(B(O)O)cc2)CC1)[C@H]1CC[C@H]2C3[C@@H](O)C[C@@H]4C[C@H](O)CC[C@]4(C)[C@H]3CC[C@]12C (stereo partly drawn) [Compound 23],approximately 75%,~60 nM,~60%,99%,competitive,9 ± 1 nM,8.5,dose-dependent decrease,54 nM,0%,34 nM,12%,29 nM,7%,33 nM,51%,30 nM,0%,"EC50 ([8]; Homo sapiens, MDA-MB-231, 4 h): 186 ± 99 nM; EC50 [8]: ~200 nM; reduction of cell migration ([8]; ATX + LPC): ~50%"
